Laboratory results: ChEMBL document CHEMBL2203042, “Novel bivalent ligands for D2/D3 dopamine receptors: Significant co-operative gain in D2 affinity and potency” (ACS Med Chem Lett, 2012)

Key:
[1] = biological target: D(2) dopamine receptor (Rattus norvegicus, UniProt P61169); assay: Displacement of [3H]spiperone from rat cloned dopamine D2L receptor expressed in HEK-293 cells by competition binding assay; assay type: cell-based, HEK293
[2] = biological target: D(3) dopamine receptor (Rattus norvegicus, UniProt P19020); assay: Displacement of [3H]spiperone from rat cloned dopamine D3 receptor expressed in HEK-293 cells by competition binding assay; assay type: cell-based, HEK293
D(3) dopamine receptor, sequence (P19020 whole entry): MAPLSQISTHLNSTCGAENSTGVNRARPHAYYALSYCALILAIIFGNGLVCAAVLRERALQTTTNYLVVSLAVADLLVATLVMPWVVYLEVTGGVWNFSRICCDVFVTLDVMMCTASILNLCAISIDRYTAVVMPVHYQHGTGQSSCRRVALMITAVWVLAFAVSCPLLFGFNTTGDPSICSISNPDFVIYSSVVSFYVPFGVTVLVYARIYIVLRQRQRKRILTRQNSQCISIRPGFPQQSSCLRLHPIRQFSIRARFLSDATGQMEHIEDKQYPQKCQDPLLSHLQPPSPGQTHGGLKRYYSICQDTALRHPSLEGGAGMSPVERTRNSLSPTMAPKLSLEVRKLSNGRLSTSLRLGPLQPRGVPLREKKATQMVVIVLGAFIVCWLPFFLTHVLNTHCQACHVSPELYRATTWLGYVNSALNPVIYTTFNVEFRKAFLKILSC

[3] = species on record: Rattus norvegicus; assay: Selectivity ratio of Ki for rat cloned dopamine D2L receptor to Ki for rat cloned dopamine D3 receptor

D(2) dopamine receptor, sequence (P61169 whole entry): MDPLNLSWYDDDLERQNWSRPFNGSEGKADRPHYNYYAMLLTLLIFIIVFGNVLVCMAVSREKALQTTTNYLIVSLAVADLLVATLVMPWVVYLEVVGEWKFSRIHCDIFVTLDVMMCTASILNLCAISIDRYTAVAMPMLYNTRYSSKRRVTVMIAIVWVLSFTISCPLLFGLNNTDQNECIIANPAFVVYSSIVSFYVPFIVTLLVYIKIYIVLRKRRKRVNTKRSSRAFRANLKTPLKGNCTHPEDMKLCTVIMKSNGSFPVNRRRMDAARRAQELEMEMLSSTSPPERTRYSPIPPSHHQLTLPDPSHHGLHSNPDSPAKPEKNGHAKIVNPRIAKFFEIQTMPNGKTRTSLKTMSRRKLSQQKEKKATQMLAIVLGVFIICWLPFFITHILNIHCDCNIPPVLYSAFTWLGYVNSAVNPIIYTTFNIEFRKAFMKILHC

Structure (SMILES) | Ki [1] | Ki [2] | Ratio Ki [3]
CCCN(CCCCCN(CCC)[C@H]1CCc2c(O)cccc2C1)[C@H]1CCc2c(O)cccc2C1 | 75 nM | 3.6 nM | 21
CCCN(CCCCN(CCC)[C@H]1CCc2c(O)cccc2C1)[C@H]1CCc2c(O)cccc2C1 | 70 nM | 4 nM | 17
CCCN(CCN(CCC)[C@H]1CCc2c(O)cccc2C1)[C@H]1CCc2c(O)cccc2C1 | 16 nM | 1.1 nM | 14
CCCN(CCCCCCCN(CCC)[C@H]1CCc2c(O)cccc2C1)[C@H]1CCc2c(O)cccc2C1 | 3.9 nM | 1.1 nM | 3.6
CCCN(CCCCCCN(CCC)[C@H]1CCc2c(O)cccc2C1)[C@H]1CCc2c(O)cccc2C1 | 5.9 nM | 2.2 nM | 2.7
CCCCCCCCCN(CCC)[C@H]1CCc2c(O)cccc2C1 | 69 nM | 7.3 nM | 9.4
CCCN(CCCCCCCCCCCCCCN(CCC)[C@H]1CCc2c(O)cccc2C1)[C@H]1CCc2c(O)cccc2C1 | 55 nM | 31 nM | 1.7
CCCN(CCCCCCCCCCCCN(CCC)[C@H]1CCc2c(O)cccc2C1)[C@H]1CCc2c(O)cccc2C1 | 11 nM | 10 nM | 1
CCCN(CCCCCCCCCc1ccccc1)[C@H]1CCc2c(O)cccc2C1 | 140 nM | 23 nM | 6.1
